# Data published in US9744177B2, “Treatment of male androgen deficiency symptoms or diseases with sex steroid precursor combined with SERM” (ENDORECHERCHE, INC., priority 2014, dated 2017).
# Columns and labels:
# ovariectomized mice = test: Estrogenic activity: uterine and vaginal weight in ovariectomized mice, compounds alone; type: in vivo, BALB/c mice; conditions: OVX mice, no estrone; 10 μg daily oral
# Procedure: Female BALB/c mice (BALB/cAnNCrlBR) weighing 18-20 g were obtained from Charles-River, Inc. (St-Constant, Quebec, Canada) and housed 5 per cage in a temperature (23±1° C.)- and light (12 h light/day, lights on at 7:15)-controlled environment. The mice were fed rodent chow and tap water ad libitum. The animals were ovariectomized (OVX) under Isoflurane anesthesia via bilateral flank incisions and randomly assigned to groups of 10 animals. Ten mice were kept intact as controls.
# In the second experiment (Table 4), TSE 424 was administered orally by gavage once daily at doses of 1, 3, 10 or 30 μg/animal for 9 days, starting 2 days after ovariectomy. In both experiments, to evaluate the antiestrogenic activity, treatment with estrone (E1, 0.06 μg, s.c. injection, twice daily) was started 5 days post-ovariectomy and was administered for a 6 day-period. Compounds were dissolved in ethanol (4% final concentration) and administered in 0.4% methylcellulose. Mice in the intact and OVX control groups received the vehicle alone (4% ETOH-0.4% methylcellulose) during the 9-day period. The animals were killed by exsanguination at the abdominal aorta on the 11th morning following ovariectomy. The uteri and vagina were rapidly dissected, weighed, and kept in 10% buffered formalin for further histologic examination.
# [1] = test system: human breast cancer MCF-7 cells; test: Proliferation of MCF-7 cells (DNA content); type: cell-based; conditions: Experiment 2
# Procedure: The MCF-7 human breast adenocarcinoma cell line was derived from the pleural effusion of a patient. MCF-7 cells were used between passages 148 and 165 and subcultured weekly.
# Cells in their late logarithmic growth phase were harvested with 0.1% pancreatin (Sigma) and resuspended in the appropriate medium containing 50 ng bovine insulin/mL and 5% (v/v) FBS treated twice with dextran-coated charcoal to remove endogenous steroids. Cells were plated in 24-well Falcon plastic culture plates (2 Cm^2/well) at the indicated density and allowed to adhere to the surface of the plates for 72 h. Thereafter, medium was replaced with fresh medium containing the indicated concentrations of compounds diluted from 1000× stock solutions in 99% redistilled ethanol in the presence or absence of E2. Control cells received only the ethanolic vehicle (0.1% EtOH, v/v). Cells were incubated for the specified time intervals with medium changes at 2- or 3-day intervals. Cell number was determined by measurement of DNA content.
# Dose-response curves as well IC50 values were calculated using a weighted iterative nonlinear least-squares regression. All results are expressed as means±SEM.
# [2] = patients treated with testosterone; cited from earlier work
# [3] = men with serum testosterone <3.0 ng/mL after coronography; control group 15.4%; cited from earlier work
# [4] = female, Long-Evans, rat, in vivo, po, 20 mg/kg
smiles,measurement,setting,value
Oc1ccc2c(c1)CC[C@H](c1ccccc1)[C@@H]2c1ccc(OCCN2CCCC2)cc1 [lasofoxifene (free base)],stimulation of uterine weight,ovariectomized mice,93%
same,stimulation of vaginal weight,ovariectomized mice,73%
same,Stimulation of DNA by tested compounds,[1],N.S.
C[C@]12CC[C@H]3[C@@H](CCC4=CC(=O)CC[C@@]43C)[C@@H]1CC[C@@H]2O [testosterone],decrease in mortality risk,[2],39%
same,lower incidence of heart disease,[2],20%
same,rate of deaths at 3 years,[3],18.5%
CC1=C(c2ccc(OC(=O)C(C)(C)C)cc2)[C@H](c2ccc(OCCN3CCCCC3)cc2)Oc2cc(OC(=O)C(C)(C)C)ccc21 [14C-EM-800],"total drug-derived radioactivity in the brain, detection",[4],not detected after 12 hr post dose
